pIC50: −log10 of the molar value. Read-outs that look alike come from different tables or passages of the source.
Legend:
α7 nAChR = biological target: T1, α7 nAChR (Rattus norvegicus, UniProt Q05941); assay: Binding of 3H-MLA to α7 nAChR, crude synaptic membranes; conditions: read-out: α7 (% Inh @ 10 uM)
T1 construct: crude synaptic membrane preparations from rat cerebral cortex, striatum and hippocampus; from tissue; host or cells: rat cerebral cortex, striatum and hippocampus (crude synaptic membranes, P2 fraction)
T1 sequence (Q05941 23-502): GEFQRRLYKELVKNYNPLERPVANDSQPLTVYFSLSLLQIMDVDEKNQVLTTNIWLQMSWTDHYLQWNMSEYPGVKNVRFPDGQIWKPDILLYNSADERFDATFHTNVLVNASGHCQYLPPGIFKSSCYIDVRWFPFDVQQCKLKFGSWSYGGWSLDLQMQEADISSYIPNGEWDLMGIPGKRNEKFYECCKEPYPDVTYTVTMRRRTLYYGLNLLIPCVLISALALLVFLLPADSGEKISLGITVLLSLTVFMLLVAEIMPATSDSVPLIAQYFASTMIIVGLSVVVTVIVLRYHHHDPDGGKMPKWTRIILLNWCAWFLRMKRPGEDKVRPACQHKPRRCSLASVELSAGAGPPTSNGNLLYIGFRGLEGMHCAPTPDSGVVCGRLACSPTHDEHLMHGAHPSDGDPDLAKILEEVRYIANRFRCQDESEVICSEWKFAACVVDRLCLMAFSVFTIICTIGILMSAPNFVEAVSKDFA
Experimental: α7 Nicotinic Acetylcholine Receptor (α7nAChR)
In Vitro Protocol for Determination of α7nAChR Binding Potencies of Ligands
Binding of ^3H-MLA (methylcaconitine) to neuronal nicotinic acetylcholine receptors was accomplished using crude synaptic membrane preparations from rat cerebral cortex, striatum and hippocampus. Either fresh or frozen membranes were homogenized in ˜50 volumes of 10 mM HEPES (N-2-Hydroxyethylpiperazine-N′-2-Ethanesulfonic acid, pH 7.4) and centrifuged at 42,000×g. The P2 fraction was resuspended in ˜40 volumes of 10 mM HEPES and centrifuged at 42,000×g. This step was repeated and the P2 fraction was resuspended in 25 volumes (e.g. 1 g of original into 25 mL) of a medium comprised of Na^+-HEPES buffer (10 mM, pH 7.4), 5 mM MgCl2, 0.01% powdered bovine serum albumin (BSA), and 100 mM NaCl. To initiate the binding reaction, test compound (100 μL), Na-HEPES buffered incubation medium (400 μL), ^3H-MLA (250 μL) and the suspension of biological membranes (250 μL) were mixed, and then the samples were incubated at 23° C. for 40 minutes., The binding reaction was terminated by filtration using a Brandel Cell Harvester, and the amount of bound ^3H-MLA for each sample was quantitated using a Wallac LKB 1205 Betaplate liquid scintillation counter. All test compounds were screened at 10 μM in quadruplicate. Nonspecific binding was determined using 10 μM MLA to block all binding of ^3H-MLA to the α7 nAChR. The activity of each test compound was calculated as follows. After correcting for nonspecific binding, the percent inhibition of specific binding (total binding minus nonspecific) was calculated. Each active compound was further tested at five concentrations to generate a concentration-inhibition curve. The IC50 values were determined using the Prism (GraphPad Software) nonlinear regression program.

α4β2 nAChR = biological target: T2, α4β2 nAChR (Rattus norvegicus, UniProt P09483+P12390); assay: Binding of 3H-cytisine to α4β2 nAChR, crude synaptic membranes; conditions: for inhibition at 10 µM: read-out: α4β2 % Inhibition at 10 μM
T2 construct: crude synaptic membrane preparations from rat cerebral cortex, striatum and hippocampus; from tissue; host or cells: rat cerebral cortex, striatum and hippocampus (crude synaptic membranes, P2 fraction)
T2 sequence (P09483 31-630): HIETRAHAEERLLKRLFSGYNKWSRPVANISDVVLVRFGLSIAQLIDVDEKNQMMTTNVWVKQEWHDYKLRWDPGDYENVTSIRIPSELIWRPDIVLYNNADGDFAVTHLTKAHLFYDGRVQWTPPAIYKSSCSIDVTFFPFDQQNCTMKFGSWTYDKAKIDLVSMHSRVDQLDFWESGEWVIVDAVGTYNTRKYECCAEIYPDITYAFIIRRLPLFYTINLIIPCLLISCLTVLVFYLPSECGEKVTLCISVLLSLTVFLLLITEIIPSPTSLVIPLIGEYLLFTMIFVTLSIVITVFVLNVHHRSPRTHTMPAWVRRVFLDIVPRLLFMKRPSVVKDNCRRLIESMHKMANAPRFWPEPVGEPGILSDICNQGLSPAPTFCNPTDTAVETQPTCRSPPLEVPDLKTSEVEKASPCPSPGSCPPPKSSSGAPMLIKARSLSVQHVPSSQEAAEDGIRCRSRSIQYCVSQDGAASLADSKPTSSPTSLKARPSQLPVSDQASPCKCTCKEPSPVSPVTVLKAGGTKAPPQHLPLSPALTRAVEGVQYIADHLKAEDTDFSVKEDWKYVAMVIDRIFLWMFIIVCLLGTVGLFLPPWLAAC
T2 sequence (P12390 25-500): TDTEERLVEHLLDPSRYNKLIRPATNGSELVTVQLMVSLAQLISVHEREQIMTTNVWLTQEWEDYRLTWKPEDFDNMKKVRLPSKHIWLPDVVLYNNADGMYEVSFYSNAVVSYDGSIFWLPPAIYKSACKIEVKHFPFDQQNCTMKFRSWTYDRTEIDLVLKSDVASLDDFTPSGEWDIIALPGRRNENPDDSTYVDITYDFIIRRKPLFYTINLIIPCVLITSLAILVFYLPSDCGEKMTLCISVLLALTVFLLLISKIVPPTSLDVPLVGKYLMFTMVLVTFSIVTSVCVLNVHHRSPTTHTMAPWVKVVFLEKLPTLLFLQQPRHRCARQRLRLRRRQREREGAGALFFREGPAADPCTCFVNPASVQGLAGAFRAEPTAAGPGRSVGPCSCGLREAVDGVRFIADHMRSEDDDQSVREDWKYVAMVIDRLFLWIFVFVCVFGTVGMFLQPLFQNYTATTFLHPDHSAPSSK
Experimental: α4β2 Nicotinic Acetylcholine Receptor (α4β2 nAChR)
In Vitro Protocol for Determination of α4β2 nAChR Binding Potencies of Ligands
Binding of ^3H-cytisine to neuronal nicotinic acetylcholine receptors was accomplished using crude synaptic membrane preparations from rat cerebral cortex, striatum and hippocampus. Either fresh or frozen membranes were homogenized in ˜50 volumes of 10 mM HEPES (N-2-Hydroxyethylpiperazine-N′-2-Ethanesulfonic acid, pH 7.4) and centrifuged at 42,000×g. The P2 fraction was resuspended in ˜40 volumes of 10 mM HEPES and centrifuged at 42,000×g. This step was repeated and the P2fraction was resuspended in 25 volumes (e.g. 1 g of original into 25 mL) of a medium comprising Na^+-HEPES buffer (10 mM, pH 7.4), 5 mM MgCl2, 0.01% powdered bovine serum albumin (BSA) and 100 mM NaCl. To initiate the binding reaction, test compound (100 μL), Na-HEPES buffered incubation medium (400 μL), ^3H-cytisine (250 μL) and the suspension of biological membranes (250 μL) were mixed, and then the samples were incubated at 23° C. for 40 minutes. The binding reaction was terminated by filtration using a Brandel Cell Harvester and the amount of bound ^3H-cytisine for each sample was quantitated using a Wallac LKB 1205 Betaplate liquid scintillation counter. All test compounds were screened at 10 μM in quadruplicate. Nonspecific binding was determined using 10 μM (+)-epibatidine to block all binding of ^3H-cytisine to the α4β2 nAChR. The activity of each test compound was calculated as follows. After correcting for nonspecific binding, the percent inhibition of specific binding (total binding minus nonspecific) was calculated. Each active compound was further tested at five concentrations to generate a concentration-inhibition curve. The IC50 values were determined using the Prism (GraphPad Software) nonlinear regression program.

[1] = 3H-cytisine, rat cerebral cortex, striatum and hippocampus membranes, IC50 from five concentrations, read-out: α4β2

| SMILES | inhibition at 10 µM (α7 nAChR) [%] | inhibition at 10 µM (α4β2 nAChR) [%] | pIC50 (α4β2 nAChR) | pIC50 (α4β2 nAChR; [1]) |
| --- | --- | --- | --- | --- |
| CCN1CCC(Oc2cccnc2)C1 (stereo not drawn) [Example 8, 3-(1-Ethyl-3-pyrrolidinyloxy)-pyridine] | 18 | 71 |  |  |
| CC(C)N1CCC(Oc2cccnc2)C1 (stereo not drawn) [Example 9, 3-(1-Isopropyl-3-pyrrolidinyloxy)-pyridine] | 19 | 30 |  |  |
| c1cncc(OC2CNC2)c1 [Example 1, 3-(3-Azetidinyloxy)-pyridine] | 21 | 46 |  |  |
| Clc1ccc(O[C@@H]2CCNC2)cn1 [Example 6, 2-Chloro-5-(3-(R)-pyrrolidinyloxy)-pyridine] | 20 |  | 6.33 |  |
| Clc1ncc(O[C@@H]2CCNC2)cc1Br [Example 12, 2-Chloro-3-bromo-5-(3-(R)-pyrrolidinyloxy)-pyridine] | 11 |  |  | 7.03 |
| C[Si](C)(C)C#Cc1ccc(-c2cc(O[C@@H]3CCNC3)cnc2Cl)cc1 [Example 15, 2-Chloro-3-(4-trimethylsilylethynyl)phenyl-5-(3-(R)-pyrrolidinyloxy)-pyridine] | 22 |  | 7.60 |  |
| c1cncc(O[C@@H]2CCNC2)c1 [Example 4, 3-(3-(R)-Pyrrolidinyloxy)-pyridine] | 11 |  |  | 7.35 |
| CN1CC[C@@H](Oc2cccnc2)C1 [Example 5, 3-(1-Methyl-3-(R)-pyrrolidinyloxy)-pyridine] | 20 |  |  | 6.26 |
| c1cncc(OC2CCNC2)c1 (stereo not drawn) [Example 2, 3-(3-Pyrrolidinyloxy)-pyridine] | -15 |  |  | 6.68 |
| c1cncc(O[C@H]2CCNC2)c1 [Example 3, 3-(3-(S)-Pyrrolidinyloxy)-pyridine] | 5 |  |  | 6.35 |
| c1cncc(O[C@H]2CCCNC2)c1 [Example 11, 3-(3-(S)-Piperidinyloxy)-pyridine] | 86 |  | 6.17 |  |
| N#Cc1ccc(-c2cc(O[C@@H]3CCNC3)cnc2Cl)cc1 [Example 13, 2-Chloro-3-(4-cyano)phenyl-5-(3-(R)-pyrrolidinyloxy)-pyridine] | 26 |  |  | 7.66 |
| COc1cccc(-c2cc(O[C@@H]3CCNC3)cnc2Cl)c1 [Example 14, 2-Chloro-3-(3-methoxy)phenyl-5-(3-(R)-pyrrolidinyloxy)-pyridine] | 33 |  |  | 7.24 |
| CN1CCC(Oc2cccnc2)C1 (stereo not drawn) [Example 7, 3-(1-Methyl-3-pyrrolidinyloxy)-pyridine] | 22 |  |  | 7.04 |
| c1cncc(OC2CCCNC2)c1 (stereo not drawn) [Example 10, 3-(3-Piperidinyloxy)-pyridine] | 19 |  |  | 6.69 |

Reference: patent US6888001B2, “Pyridyl ethers and thioethers as ligands for nicotinic acetylcholine receptor and its therapeutic application” (priority 1998, dated 2005)
